# How the values were obtained:
# [1] = higher mammals; cited from earlier work
# tracheal epithelium [2] = assay: Reversal of keratinized squamous metaplastic lesions of vitamin A deficiency in tracheal organ culture; assay type: cell-based; conditions: collected day 10; for % of Cultures with Respective Amounts of Squamous Metaplasia: Marked: marked = 10-40% squamous; for % of Cultures with Respective Amounts of Squamous Metaplasia: Mild: mild = 2-10% squamous; for % of Cultures with Respective Amounts of Squamous Metaplasia: Minimal: minimal = less than 2% squamous; for % of Cultures with Respective Amounts of Squamous Metaplasia: Severe: severe = more than 40% squamous
# Text: N-(4-hydroxyphenyl)-all-trans-retinamide was compared with retinoic acid in an in vitro screening model for identifying retinoids having activity in preventing carcinogenesis in epithelial tissue. The experimental method, which is described in Experimental Lung Cancer:Intern'l Symp, 575-82, 1974, involves reversal of keratinization in tracheal organ culture.
# In brief summary, in the absence of retinoic acid or a synthetic retinoid having similar activity, the test organ culture of tracheal epithelium undergoes abnormal differentiation. Addition of small concentrations of retinoic acid (as low as 10^-9 M) will cause reversion to normal tracheal epithelium. Test compounds are compared in activity to retinoic acid or another active standard both as regards squamous metaplasia and keratin production, both of which are measures of abnormal development of the epithelial culture.
# In carrying out the tests reported in Table I, all tracheas were cultured for the first 3 days in medium without retinoid. At this time, some tracheas were collected, while the rest were cultured for a further week in medium containing either no retinoid, or retinoid added at the concentrations shown. These tracheas were collected on the 10th day of culture. Cultures were graded as to the percentage of their total epithelium showing squamous metaplasia on eight cross sections from the middle of each trachea. If more than 40% of the total epithelial length was squamous, it was graded as having severe squamous metaplasia; between 10-40% was graded as marked; between 2-10% was graded as mild; and less than 2% was graded as minimal.
# tracheal epithelium [3] = conditions: small concentrations, as low as; cited from earlier work
# [4] = tested on: MNU-induced mammary cancer; assay: Inhibition of mammary carcinogenesis induced by N-methyl-N-nitrosourea (MNU), rat breast cancer; assay type: in vivo, Female Sprague-Dawley rats; conditions: Table II, 73 days
# [5] = MNU high dose (50 mg/kg), 328 mg/kg diet
# [6] = MNU high dose (50 mg/kg), 656 mg/kg diet
# [7] = MNU low dose (15 mg/kg), 328 mg/kg diet
# [8] = MNU low dose (15 mg/kg), 656 mg/kg diet
smiles,measurement,setting,value
"CC1=C(/C=C/C(C)=C/C=C/C(C)=C/C(=O)O)C(C)(C)CCC1 [Retinoic Acid, retinoic acid, reference compound]",toxicity at high dosage levels,[1],too toxic at high dosage levels to be of practical value for cancer prevention in higher mammals
same,% of Cultures with Keratin and Keratohyaline Granules,tracheal epithelium [2]; 10^-8 M,0%
same,% of Cultures with Respective Amounts of Squamous Metaplasia: None,tracheal epithelium [2]; 10^-8 M,27%
same,% of Cultures with Respective Amounts of Squamous Metaplasia: Marked,tracheal epithelium [2]; 10^-8 M,0%
same,% of Cultures with Respective Amounts of Squamous Metaplasia: Mild,tracheal epithelium [2]; 10^-8 M,23%
same,% of Cultures with Respective Amounts of Squamous Metaplasia: Minimal,tracheal epithelium [2]; 10^-8 M,49%
same,% of Cultures with Respective Amounts of Squamous Metaplasia: Severe,tracheal epithelium [2]; 10^-8 M,0%
same,% of Cultures with Keratin and Keratohyaline Granules,tracheal epithelium [2]; 10^-9 M,3%
same,% of Cultures with Respective Amounts of Squamous Metaplasia: None,tracheal epithelium [2]; 10^-9 M,16%
same,% of Cultures with Respective Amounts of Squamous Metaplasia: Marked,tracheal epithelium [2]; 10^-9 M,12%
same,% of Cultures with Respective Amounts of Squamous Metaplasia: Mild,tracheal epithelium [2]; 10^-9 M,32%
same,% of Cultures with Respective Amounts of Squamous Metaplasia: Minimal,tracheal epithelium [2]; 10^-9 M,37%
same,% of Cultures with Respective Amounts of Squamous Metaplasia: Severe,tracheal epithelium [2]; 10^-9 M,2%
same,% of Cultures with Keratin and Keratohyaline Granules,tracheal epithelium [2]; 10^-10 M,32%
same,% of Cultures with Respective Amounts of Squamous Metaplasia: None,tracheal epithelium [2]; 10^-10 M,9%
same,% of Cultures with Respective Amounts of Squamous Metaplasia: Marked,tracheal epithelium [2]; 10^-10 M,17%
same,% of Cultures with Respective Amounts of Squamous Metaplasia: Mild,tracheal epithelium [2]; 10^-10 M,43%
same,% of Cultures with Respective Amounts of Squamous Metaplasia: Minimal,tracheal epithelium [2]; 10^-10 M,4%
same,% of Cultures with Respective Amounts of Squamous Metaplasia: Severe,tracheal epithelium [2]; 10^-10 M,28%
same,lowest concentration causing reversion to normal tracheal epithelium,tracheal epithelium [3],10^-9 M
"CC(=O)OC/C=C(C)/C=C/C=C(C)/C=C/C1=C(C)CCCC1(C)C [Retinyl Acetate, retinyl acetate, reference compound]",Mammary Tumor Incidence,[4]; [5],5/19
same,Mammary Tumor Incidence (%),[4]; [5],26%
same,Mammary Tumor Incidence,[4]; [6],4/17
same,Mammary Tumor Incidence (%),[4]; [6],24%
same,Mammary Tumor Incidence,[4]; [7],0/39
same,Mammary Tumor Incidence (%),[4]; [7],0%
same,Mammary Tumor Incidence,[4]; [8],0/40
same,Mammary Tumor Incidence (%),[4]; [8],0%
same,Mammary Tumor Incidence,"[4]; saline, 328 mg/kg diet",0/10
same,Mammary Tumor Incidence (%),"[4]; saline, 328 mg/kg diet",0%
same,Mammary Tumor Incidence,"[4]; saline, 656 mg/kg diet",0/10
same,Mammary Tumor Incidence (%),"[4]; saline, 656 mg/kg diet",0%
same,toxicity at high dosage levels,[1],too toxic at high dosage levels to be of practical value for cancer prevention in higher mammals
CCCCCCCCCCCCCCCC(=O)OC/C=C(C)/C=C/C=C(C)/C=C/C1=C(C)CCCC1(C)C [retinyl palmitate],toxicity at high dosage levels,[1],too toxic at high dosage levels to be of practical value for cancer prevention in higher mammals
